ChEMBL document CHEMBL1201862, “PubChem BioAssay data set” (2004)
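Test compounds were applied to cells in 96-well plates for 48 hours at 5 doses. Abbreviation: GI50, concentration required for 50% inhibition of growth.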 The source made the active and inactive calls. Cut-off read from the data, not from the text of the source: active = GI50 up to about 1.1 µM and inactive = higher.

Tests used:
Test in all cases: DTP human tumour cell line panel, 48 h
[1] = system: SF-268
[2] = system: EKVX
[3] = system: OVCAR-4
[4] = system: DU-145
[5] = system: MCF7
[6] = system: CCRF-CEM
[7] = system: NCI/ADR-RES
[8] = system: MDA-N
[9] = system: MOLT-4
[10] = system: M14
[11] = system: HCT-116
[12] = system: SNB-75
[13] = system: MDA-MB-231
[14] = system: SK-OV-3
[15] = system: MDA-MB-435
[16] = system: NCI-H522
[17] = system: Malme-3M
[18] = system: U-251
[19] = system: OVCAR-8
[20] = system: 786-0
[21] = system: K562
[22] = system: UO-31
[23] = system: SF-295
[24] = system: SK-MEL-28
[25] = system: SNB-19
[26] = system: OVCAR-3
[27] = system: LOX IMVI
[28] = system: RPMI-8226
[29] = system: OVCAR-5
[30] = system: NCI-H23
[31] = system: COLO 205
[32] = system: HL-60
[33] = system: HT-29
[34] = system: PC-3
[35] = system: T47D
[36] = system: HCC 2998
[37] = system: SN12C
[38] = system: SK-MEL-2
[39] = system: RXF 393
[40] = system: BT-549
[41] = system: HCT-15
[42] = system: Hs-578T
[43] = system: SR
[44] = system: UACC-62
[45] = system: NCI-H226
[46] = system: SF-539
[47] = system: SW-620
[48] = system: KM12
[49] = system: CAKI-1
[50] = system: IGROV-1
[51] = system: A549
[52] = system: SK-MEL-5
[53] = system: HOP-62
[54] = system: A498
[55] = system: NCI-H460
[56] = system: UACC-257
[57] = system: ACHN
[58] = system: HOP-92
[59] = system: TK-10

Measured: GI50

ClC1(Cl)C2CCOC21n1cnc2ccccc21 (stereo unspecified)
> 100 µM: [41]
inactive: [1] > 100 µM | [2] > 100 µM | [3] 67.3 µM | [4] > 100 µM | [5] > 100 µM | [6] > 100 µM | [7] > 100 µM | [8] > 100 µM | [9] > 100 µM | [10] > 100 µM | [11] > 100 µM | [12] > 100 µM | [13] > 100 µM | [14] > 100 µM | [15] > 100 µM | [16] 14.6 µM | [17] > 100 µM | [18] > 100 µM | [19] > 100 µM | [20] > 100 µM | [21] > 100 µM | [22] 53.8 µM | [23] > 100 µM | [24] > 100 µM | [25] > 100 µM | [26] > 100 µM | [27] 98.2 µM | [28] > 100 µM | [29] > 100 µM | [30] 45 µM | [31] > 100 µM | [32] > 100 µM | [33] > 100 µM | [34] > 100 µM | [35] > 100 µM | [36] > 100 µM | [37] > 100 µM | [38] > 100 µM | [39] > 100 µM | [40] > 100 µM | [42] > 100 µM | [43] > 100 µM | [44] 92.9 µM | [45] > 100 µM | [46] > 100 µM | [47] 7.21 µM | [48] > 100 µM | [49] > 100 µM | [50] > 100 µM | [51] > 100 µM | [52] > 100 µM | [53] > 100 µM

Cc1nc(-c2ccccc2)c(-c2ccccc2)s1
17.7 µM: [41]
inactive: [1] 25.6 µM | [2] 22.6 µM | [3] 19.6 µM | [4] 32 µM | [5] 25.3 µM | [6] 16.5 µM | [7] 24.2 µM | [8] 11.4 µM | [9] 17.6 µM | [10] 19.9 µM | [11] 25.6 µM | [12] 23.4 µM | [13] 22.5 µM | [14] 22.9 µM | [15] 17.9 µM | [16] 18.6 µM | [17] 21.4 µM | [54] 17.6 µM | [18] 15.2 µM | [19] 27.1 µM | [20] 21.4 µM | [21] 18.8 µM | [22] 20.2 µM | [23] 24.8 µM | [55] 19.1 µM | [56] 25.1 µM | [24] 45 µM | [57] 26.9 µM | [25] 31 µM | [26] 23.5 µM | [27] 16.4 µM | [28] 14.3 µM | [29] 27.6 µM | [30] 28.1 µM | [31] 18.3 µM | [32] 10 µM | [33] 17.9 µM | [34] 14.2 µM | [35] 37.8 µM | [36] 12.7 µM | [37] 37.9 µM | [38] 16.7 µM | [39] 19.4 µM | [40] 23.9 µM | [58] 20.6 µM | [42] 21.8 µM | [44] 18 µM | [59] 19.7 µM | [45] 17.9 µM | [46] 22.6 µM | [47] 15.7 µM | [48] 20.4 µM | [49] 20.2 µM | [50] 18.6 µM | [51] 25.8 µM | [52] 14.4 µM | [53] 38 µM
